Assay results as given in patent publication US20160304552A1, “MODIFIED NUCLEIC ACID MOLECULES AND USES THEREOF” (MODERNA THERAPEUTICS, INC., priority 2013, published 2016).

Assays:
[1] = system: Rabbit Reticulocyte Lysate; experiment: In vitro translation screen, human EPO modRNA (EPO ELISA); format: biochemical; settings: Table 20; 250 ng modRNA, 45 min, 30° C.
Method: (§1) The in vitro translation assay was done with the Rabbit Reticulocyte Lysate (nuclease-treated) kit (Promega, Madison, Wis.; Cat. #L4960) according to the manufacturer's instructions. The reaction buffer was a mixture of equal amounts of the amino acid stock solutions devoid of Leucine or Methionine provided in the kit.
(§2) The modRNAs of firefly Luciferase, human GCSF and human EPO, harboring chemical modifications on either the bases or the ribose units, were diluted in sterile nuclease-free water to a final concentration of 250 ng in 2.5 ul (Stock 100 ng/μl). The modRNA (250 ng) was added to the mixture of freshly prepared Rabbit Reticulocyte Lysate and reaction buffer.
(§3) Aliquots of the in vitro translation reaction containing human GCSF modRNA or human EPO mRNA were transferred and analyzed with a human GCSF-specific or EPO ELISA kit (both from R&D Systems, Minneapolis, Minn.; Cat. #s SCS50, DEP00 respectively) according to the manufacturer instructions. All samples were diluted until the determined values were within the linear range of the human GCSF or EPO ELISA standard curve.

[2] = system: HeLa cells; experiment: Transfection in HeLa cells, human EPO modRNA (EPO ELISA of supernatant); format: cell-based; settings: Table 22, 18 h to 22 h
Method: (§4) The day before transfection, 20.000 HeLa cells (ATCC no. CCL-2; Manassas, Va.) were harvested by treatment with Trypsin-EDTA solution (LifeTechnologies, Grand Island, N.Y.) and seeded in a total volume of 100 ul EMEM medium (supplemented with 10% FCS and 1× Glutamax) per well in a 96-well cell culture plate (Corning, Manassas, Va.). The cells were grown at 37° C. in 5% CO2 atmosphere overnight. Next day, 83 ng of Luciferase modRNA or 250 ng of human GCSF modRNA, harboring chemical modifications on the bases or the ribose units, were diluted in 10 ul final volume of OPTI-MEM (LifeTechnologies, Grand Island, N.Y.). Lipofectamine 2000 (LifeTechnologies, Grand Island, N.Y.) was used as transfection reagent and 0.2 μl were diluted in 10 ul final volume of OPTI-MEM. After 5 min incubation at room temperature, both solutions were combined and incubated additional 15 min at room temperature. Then the 20 μl were added to the 100 ul cell culture medium containing the HeLa cells. The plates were then incubated as described before.
(§5) After 18 h to 22 h incubation, cell culture supernatants of cells expressing human GCSF or human EPO were collected and centrifuged at 10.000 rcf for 2 min. The cleared supernatants were transferred and analyzed with a human GCSF-specific or EPO ELISA kit (both from R&D Systems, Minneapolis, Minn.; Cat. #s SCS50, DEP00, respectively) according to the manufacturer instructions. All samples were diluted until the determined values were within the linear range of the human GCSF or EPO ELISA standard curve.

[3] = system: HeLa cells; experiment: Transfection in HeLa cells, human GCSF modRNA (GCSF ELISA of supernatant); format: cell-based; settings: Table 22, 250 ng modRNA, 18 h to 22 h
Method: as §4, §5

[4] = biological target: T7 RNA polymerase (Escherichia phage T7, UniProt P00573); experiment: In vitro transcription yields of modified mRNA; format: biochemical; settings: for EPO In Vitro Transcription yield: EPO mRNA made with the modified NTP(s); for GCSF In Vitro Transcription yield: GCSF mRNA made with the modified NTP(s); for Luc In Vitro Transcription yield: Luciferase mRNA made with the modified NTP(s)
T7 RNA polymerase, sequence (P00573 whole entry): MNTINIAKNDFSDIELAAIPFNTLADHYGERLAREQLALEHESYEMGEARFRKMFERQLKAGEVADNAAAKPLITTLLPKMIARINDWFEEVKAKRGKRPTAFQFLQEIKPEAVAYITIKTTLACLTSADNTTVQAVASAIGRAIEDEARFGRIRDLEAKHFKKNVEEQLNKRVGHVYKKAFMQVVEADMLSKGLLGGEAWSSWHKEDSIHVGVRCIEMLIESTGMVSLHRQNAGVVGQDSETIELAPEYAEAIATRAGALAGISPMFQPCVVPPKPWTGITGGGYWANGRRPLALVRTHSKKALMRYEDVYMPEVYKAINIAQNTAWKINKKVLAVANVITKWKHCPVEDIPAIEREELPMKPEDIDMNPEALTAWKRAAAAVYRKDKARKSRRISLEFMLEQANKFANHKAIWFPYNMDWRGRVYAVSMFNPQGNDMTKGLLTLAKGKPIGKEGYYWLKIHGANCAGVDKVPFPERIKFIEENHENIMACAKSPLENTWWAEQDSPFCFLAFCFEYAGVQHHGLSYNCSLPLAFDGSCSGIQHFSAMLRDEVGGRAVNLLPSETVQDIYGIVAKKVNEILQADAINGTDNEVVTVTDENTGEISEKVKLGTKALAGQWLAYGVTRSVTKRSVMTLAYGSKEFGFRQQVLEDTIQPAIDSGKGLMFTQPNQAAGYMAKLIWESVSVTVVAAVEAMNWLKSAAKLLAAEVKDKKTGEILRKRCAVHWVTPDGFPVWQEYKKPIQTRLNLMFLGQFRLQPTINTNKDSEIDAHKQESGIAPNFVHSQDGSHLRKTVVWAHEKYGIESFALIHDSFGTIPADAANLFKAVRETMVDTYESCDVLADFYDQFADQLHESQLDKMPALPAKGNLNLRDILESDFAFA
Method: The in vitro transcription reaction generates mRNA containing modified nucleotides or modified RNA. The input nucleotide triphosphate (NTP) mix is made in-house using natural and unnatural NTPs.
A typical in vitro transcription reaction includes the following:
Incubation at 37° C. for 3 hr-5 hrs.
The crude IVT mix may be stored at 4° C. overnight for cleanup the next day. 1 U of RNase-free DNase is then used to digest the original template. After 15 minutes of incubation at 37° C., the mRNA is purified using Ambion's […]™ Kit (Austin, Tex.) following the manufacturer's instructions. This kit can purify up to 500 μg of RNA. Following the cleanup, the RNA is quantified using the NanoDrop and analyzed by agarose gel electrophoresis to confirm the RNA is the proper size and that no degradation of the RNA has occurred.
Modified mRNAs in TE buffer (1 μl) are used for Nanodrop UV absorbance readings to quantitate the yield of each modified mRNA from an in vitro transcription reaction (UV absorbance traces are not shown).

[5] = system: Rabbit Reticulocyte Lysate; experiment: In vitro translation screen, human GCSF modRNA (GCSF ELISA); format: biochemical; settings: Table 20; 250 ng modRNA, 45 min, 30° C.
Method: as §1, §2, §3

[6] = system: Rabbit Reticulocyte Lysate; experiment: In vitro translation screen, firefly Luciferase modRNA (luciferase assay, relative light units); format: biochemical; settings: Table 20; 250 ng modRNA, 45 min, 30° C.
Method: as §1, §2
After 45 min incubation, the reaction was stopped by placing the plate on ice. Aliquots of the in vitro translation reaction containing luciferase modRNA were transferred to white opaque polystyrene 96-well plates (Corning, Manassas, Va.; Cat. # CLS3912) and combined with 100 ul complete luciferase assay solution (Promega, Madison, Wis.). The volumes of the in vitro translation reactions were adjusted or diluted until no more than 2 million relative light units per well were detected for the strongest signal producing samples. […] The plate reader was a BioTek Synergy H1 (BioTek, Winooski, Vt.).

[7] = system: HeLa cells; experiment: Transfection in HeLa cells, Luciferase modRNA (luciferase assay, relative light units); format: cell-based, human; settings: Table 22, 83 ng modRNA, Lipofectamine 2000, 18 h to 22 h
Method: as §4
After 18 h to 22 h incubation, cells expressing luciferase were lysed with 100 μl Passive Lysis Buffer (Promega, Madison, Wis.) according to manufacturer instructions. Aliquots of the lysates were transferred to white opaque polystyrene 96-well plates (Corning, Manassas, Va.) and combined with 100 ul complete luciferase assay solution (Promega, Madison, Wis.). The lysate volumes were adjusted or diluted until no more than 2 mio relative light units per well were detected for the strongest signal producing samples. […] The plate reader was a BioTek Synergy H1 (BioTek, Winooski, Vt.).

SMILES	Epo Expression [1] [pg/mL]	Epo Expression [2] [pg/mL]	GCSF Expression [3] [pg/mL]	EPO In Vitro Transcription yield [4] [mg]	GCSF In Vitro Transcription yield [4] [mg]	Luc In Vitro Transcription yield [4] [mg]	GCSF Expression [5] [pg/mL]	Luc Expression (RLUs) [6] [RLUs]	Luc Expression (RLUs) [7] [RLUs]
Cc1cn([C@@H]2O[C@H](COP(=O)(O)OP(=O)(O)OP(=O)(O)O)C(O)C2O)c(=S)[nH]c1=O (stereo in doubt) [00901013004 (4), 5-Methyl-2-thio-UTP]	1100	8333	16420	0.8717	0.4682	0.7580	2319	235	–
COC(=O)COc1cn([C@@H]2O[C@H](COP(=O)(O)OP(=O)(O)OP(=O)(O)O)C(O)C2O)c(=O)[nH]c1=O (stereo in doubt) [00901013004 (348), UTP-5-oxyacetic acid Me ester]	544	8333	5714	0.3859	0.3836	0.6348	4388	162	–
Nc1nc(=O)n([C@@H]2O[C@H](COP(=O)(O)OP(=O)(O)OP(=O)(O)O)C(O)C2O)cc1C(F)(F)F (stereo in doubt) [00901014003 (351), 5-Trifluoromethyl-CTP]	10200	668100	1039000	0.7886	0.7710	0.5097	31510	23340	32250
Nc1ncc2ncn([C@@H]3O[C@H](COP(=O)(O)OP(=O)(O)OP(=O)(O)O)C(O)C3O)c2n1 (stereo in doubt) [03601012004 (382), 2-Aminopurine-riboside TP]	22180	56980	39290	0.0125	0.2919	0.0690	8675	107000	713.50
NC/C=C/c1cn([C@@H]2O[C@H](COP(=O)(O)OP(=O)(O)OP(=O)(O)O)C(O)C2O)c(=O)nc1N (stereo in doubt) [03601014009 (381), 5-Aminoallyl-CTP]	169	3488	24290	0.4943	0.4567	0.3471	1806	887	319.00
CCn1cc([C@@H]2O[C@H](COP(=O)(O)OP(=O)(O)OP(=O)(O)O)C(O)C2O)c(=O)[nH]c1=O (stereo in doubt) [03601015003 (172), 1-Ethyl-pseudo-UTP]	7894	52780	209300	1.095	0.5464	0.6304	5700	122	130.50
CCCn1cc([C@@H]2O[C@H](COP(=O)(O)OP(=O)(O)OP(=O)(O)O)C(O)C2O)c(=O)[nH]c1=O (stereo in doubt) [03601015004 (173), 1-Propyl-pseudo-UTP]	838	0.00	10000	0.9920	0.5976	0.4971	1613	140	–
O=c1ccn([C@@H]2O[C@H](COP(=O)(O)OP(=O)(O)OP(=O)(O)O)C(O)C2O)c(=S)[nH]1 (stereo in doubt) [Compound 00901013008, 2-Thio-UTP]	1894	182600	214300	0.3630	0.3359	0.2792	3744	1181	423.00
O=c1[nH]c(=O)n([C@@H]2O[C@H](COP(=O)(O)OP(=O)(O)OP(=O)(O)O)C(O)C2O)cc1Br (stereo in doubt) [Compound 00901013009, 5-Bromo-UTP]	18220	210500	118600	0.2617	0.3566	0.3352	21530	218500	2731
NC/C=C/c1cn([C@@H]2O[C@H](COP(=O)(O)OP(=O)(O)OP(=O)(O)O)C(O)C2O)c(=O)[nH]c1=O (stereo in doubt) [Compound 00901013010, 5-Aminoallyl-UTP]	1863	67440	40710	0.3732	0.4206	0.3513	3706	14870	1946
O=c1ccn([C@@H]2O[C@H](COP(O)(=S)OP(=O)(O)OP(=O)(O)O)C(O)C2O)c(=O)[nH]1 (stereo in doubt) [Compound 00902013001, Alpha-thio-UTP]	14260	190700	73570	0.2666	0.2605	0.3510	20530	51180	937.0
